Entries after “also recorded” stand apart in the source; their conditions may differ. Counter-ions that a name gives are not always drawn.
Tests used:
[1] = Particular toxicity in grouped mice; details: mouse, in vivo, ip
Description: The number of dead animals is noted after 1 hour, 2 hours, 3 hours, 4 hours and 24 hours.

[2] = tested on: gravid White New Zealand female rabbits; assay: Teratogenicity in gravid White New Zealand rabbits; format: in vivo, rabbit; details: day 5 to day 18 of gestation; for Affected foetuses, %: normal limit 1.5%
Description: The protocol used comprised administering to gravid White New Zealand female rabbits (weighing each about 2900-3000 grams before gestation) a daily dose of 0 (batch of control animals), 5,10 or 50 mg/kg of each product to be tested by gastrogavage from day 5 to day 18 of gestation, then carrying out a cesarean operation on day 29 of gestation in order to enumerate:
(i) the total number of foestuses, and
(ii) the total number of foestuses presenting at least one malformation.
To appreciate the results of such a protocol it must be noted that natural malformations may occur. Statistically, the percentage of foetuses presenting at least one malformation in any control batch of gravid White New Zealand female rabbits is lower than or equal to 1.5% with respect to the total number of foetuses.
To be precise in this protocol a malformation comprises at least one of the following cases: articular limb blocade, anorous foetus, deviated tail, shorter tail, skull deformation, exemcephalia.

[3] = tested on: CNS; assay: Neuropsychopharmacological profile as a whole; format: in vivo, mice and rats
Description: (§1) In the neuropsychopharmacological study which follows, a solution of CRL 41 153 in distilled water (pH 1.5) was administered intraperitoneally in a volume of 20 ml/kg to male mice and 5 ml/kg to male rats.

[4] = pH of solutions in distilled water; format: physicochemical
Description: The neuropsychopharmacological study was undertaken according to the procedures described above for CRL 41 153, CRL 41 213 being adminstered intraperitoneally, in solution in distilled water, in a volume of 20 ml/kg to male mice and a volume of 5 ml/kg to male rats, and the pH of the injected solution varying with the concentration of CRL 41 213 according to the data given in Table II below.

[5] = tested on: rats; assay: Interaction with amphetamine; format: in vivo, rat; details: i.p.
Description: Amphetamine (2 mg/kg) is injected intraperitoneally into groups of 6 rats 30 minutes after the administration of CRL 41 153. […] 4 mg/kg and 16 mg/kg, CRL 41 153 potentiates the intensity and duration of the stereotypies induced by amphetamine.

[6] = tested on: rats; assay: Overall behavior and reactivities in rats; format: in vivo, rat; details: dose not stated
Description: as §1
(§2) Groups of three animals are observed before and then 0.25 hour, 0.50 hour, 1 hour, 2 hours, 3 hours and 24 hours after the administration of CRL 41 153.

[7] = tested on: mice; assay: Interaction with apomorphine in mice; format: in vivo, mouse; details: i.p.
Description: Groups of 6 mice receive CRL 41 153 0.5 hour before the subcutaneous injection of 1 or 16 mg/kg of apomorphine.

[8] = tested on: mice; assay: Interaction with oxotremorine; format: in vivo, mouse; details: i.p.
Description: CRL 41 153 is administered to groups of 6 mice 0.5 hour before the intraperitoneal injection of 0.5 mg/kg of oxotremorine.

[9] = tested on: mice; assay: Interaction with reserpine; format: in vivo, mouse; details: i.p.
Description: Four hours after the intraperitoneal injection of 2.5 mg/kg of reserpine, groups of 6 mice receive CRL 41 153.

[10] = tested on: mice; assay: Behavioral despair; format: in vivo, mouse; details: forcibly immersed mice, i.p.
Description: Half an hour after they have received CRL 41 153, groups of 6 mice are placed in a beaker filled with water to a height of 6 cm. The total period of immobility between the 2nd and 6th minutes following immersion is noted.

[11] = tested on: rats; assay: Interaction with apomorphine in rats; format: in vivo, rat; details: i.p.
Description: CRL 41 153 is administered to groups of 6 rats 0.5 hour before the subcutaneous injection of 0.5 mg/kg of apomorphine.

[12] = tested on: mice; assay: Spontaneous motility; format: in vivo, mouse; details: i.p.
Description: 0.5 hour after they have received CRL 41 153, the mice (6 per dose, 12 control animals) are placed in an actimeter, where their motility is recorded for 30 minutes.

[13] = tested on: mice; assay: Interaction with barbital; format: in vivo, mouse; details: i.p., barbital 220 mg/kg
Description: Half an hour after the administration of CRL 41 153, groups of 10 mice receive an intraperitoneal injection of barbital (220 mg/kg).

[14] = tested on: mice; assay: Motility reduced by hypoxic aggression; format: in vivo, mouse; details: i.p.
Description: Half an hour after they have received CRL 41 153, the mice (10 per dose, 20 control animals) are subjected to acute hypobaric anoxia [pressure reduction of 600 mm Hg (i.e. about 8×10^4 Pa) in 90 seconds; release of vacuum in 45 seconds] and are then placed in an actimeter, where their motility is recorded for 10 minutes.

[15] = tested on: mice; assay: Overall behavior and reactivities in mice; format: in vivo, mouse; details: dose not stated
Description: as §1, §2

[16] = tested on: mice; assay: Four plate test, traction and electric shock; format: in vivo, mouse; details: i.p.
Description: The test is performed on groups of 10 mice 30 minutes after the administration of CRL 41 153.

[17] = tested on: mice; assay: Motility reduced by habituation to the enclosure; format: in vivo, mouse; details: i.p.
Description: After they have stayed In the actimeters for 18 hours, (he mice (6 per dose, 12 control animals) receive CRL 41 153. They are immediately returned to their respective enclosures and, half an hour later, their motility is recorded for 30 minutes.

[18] = tested on: immunity; assay: Immunological study (overall); details: in vivo

| Compound | selectivity ratio [1] | Affected foetuses, number ([2]; 10 mg/kg daily) | Total foetuses (live) ([2]; 10 mg/kg daily) | Affected foetuses, % ([2]; 10 mg/kg daily) | Antidepressant effects (overall) ([3]; conclusion of the tests) | Stimulant effects (overall) ([3]; conclusion of the tests) | α-adrenergic stimulant effects (overall) ([3]; conclusion of the tests) | pH ([4]; 6 g/liter in distilled water) | pH ([4]; 50 g/liter in distilled water) | Effect on stereotypies induced by amphetamine [5] | Overall behavior: observed effects (summary) [6] | Stereotype movements (summary) [6] | Effect on hypothermia induced by apomorphine [7] | Effect on hypothermic action of oxotremorine [8] | Effect on hypothermia induced by reserpine [9] | Effect on ptosis induced by reserpine [9] | Period of immobility due to despair [10] | Effect on stereotypies induced by apomorphine [11] | Spontaneous motor activity [12] | Duration of the sleep induced by barbital [13] | also measured |
| --- | --- | --- | --- | --- | --- | --- | --- | --- | --- | --- | --- | --- | --- | --- | --- | --- | --- | --- | --- | --- | --- |
| CN1Cc2c(N)cccc2C(c2ccccc2)C1 (stereo not shown) [nomifensin, reference compound] | ~4 | – | – | – | – | – | – | – | – | – | – | – | – | – | – | – | – | – | – | – | – |
| CC(C(=O)c1ccc(N)cc1)N1CCCCC1 (stereo not shown) [CRL 41 241] | – | 0 | 88 | 0% | antidepressant-type effect | large stimulant component | an α-adrenergic stimulation component | 2.0 | 1.0 | potentiation of the stereotypies | excitation with hyperactivity in mice and rats; also recorded: moderate mydriasis in mice and rats | the presence of stereotype movements in mice and rats | antagonism of the hypothermia | antagonism of the hypothermia | antagonism of the hypothermia | a decrease in the ptosis induced by reserpine | a reduction in the Period of immobility | potentiation of the stereotypies | an increase in the spontaneous motor activity of mice | a reduction in the duration of the sleep induced by barbital | pH ([4]; 0.3 g/liter in distilled water): 5.0; pH ([4]; 0.5 g/liter in distilled water): 4.5; pH ([4]; 1 g/liter in distilled water): 3.5; pH ([4]; 2 g/liter in distilled water): 3.0; pH ([4]; 3 g/liter in distilled water): 2.5; pH ([4]; 26 g/liter in distilled water): 1.5; pH ([4]; ≤0.05 g/liter in distilled water): 5.5; Effect on trembling induced by oxotremorine [8]: a very distinct reduction in the intensity of the trembling due to oxotremorine; Motor recovery of mice after hypobaric hypoxia [14]: improvement in the motor recovery; Overall behavior: observed effects (summary) [15]: excitation with hyperactivity in mice and rats; also recorded: moderate mydriasis in mice and rats; Stereotype movements (summary) [15]: the presence of stereotype movements in mice and rats; Effect on convulsant effects of electric shock [16]: total antagonism of the convulsant effect of electric shock; Number of punished passes in the four plate test [16]: a moderate increase in the number of punished passes in the 4 plate test on mice (at high doses); Motor activity of mice accustomed to their enclosure [17]: resumption in the motor activity of mice accustomed to their enclosure |
| CNC(C)C(=O)c1ccc(N)cc1 (stereo not shown) [CRL 41 218, 1-4-aminophenyl)-2-methylaminopropanone dihydrochloride] | – | – | – | – | antidepressant effects | stimulant effects | α-adrenergic stimulant effects | 5.0 | 4.0 | potentiation of the stereotypies | excitation in mice and rats | presence of stereotype movements | antagonism of the hypothermia | antagonism of the hypothermia | antagonism of the hypothermia | antagonism of the ptosis induced by reserpine | a reduction in the period of immobility | potentiation of the stereotypies | increase in the motor activity | distinct antagonism of the sleep induced by barbital | Affected foetuses, number ([2]; 50 mg/kg daily): 1; Total foetuses (live) ([2]; 50 mg/kg daily): 79; Affected foetuses, % ([2]; 50 mg/kg daily): 1.26%; Anticonvulsant effects (overall) ([3]; conclusion of the tests): anticonvulsant effects; Peripheral α-adrenergic signs (mydriasis, salivation, lacrimation, exophthalmos) ([3]; species and dose not stated, dihydrochloride): mydriasis; also recorded: salivation; pH ([4]; 13 g/liter in distilled water): 4.5; pH ([4]; ≤3 g/liter in distilled water): 5.5; Motor recovery of mice after hypobaric hypoxia [14]: improvement in the motor recovery; Overall behavior: observed effects (summary) [15]: excitation in mice and rats; Stereotype movements (summary) [15]: presence of stereotype movements; Effect on convulsant effects of electric shock [16]: antagonism, at strong doses, of the convulsant effects of electric shock; Motor activity of mice accustomed to their enclosure [17]: resumption in the motor activity of mice accustomed to their enclosure |
| CC(C(=O)c1ccc(N)cc1)N1CCSCC1 (stereo not shown) [CRL 41 248] | – | 1 | 93 | 1.07% | – | – | – | – | 1.5 | – | – | – | – | – | – | – | – | – | – | – | pH ([4]; 0.05 g/liter in distilled water): 5.0; pH ([4]; 0.1 g/liter in distilled water): 4.5; pH ([4]; 0.2 g/liter in distilled water): 4.0; pH ([4]; 0.4 g/liter in distilled water): 3.5; pH ([4]; 1.2-0.8 g/liter in distilled water): 3.0; pH ([4]; 3.2 g/liter in distilled water): 2.5; pH ([4]; 6.4 g/liter in distilled water): 2.0; pH ([4]; ≤0.025 g/liter in distilled water): 5.5; Immunological effect (overall) [18]: immunostimulant or immunomodulating effects |
| COC(=O)C(c1ccccc1)C1CCCCN1 (stereo not shown) [methylphenidate, reference compound] | ~6 | – | – | – | – | – | – | – | – | – | – | – | – | – | – | – | – | – | – | – | – |
